System: Trialeurodes vaporariorum
Test: Mortality of whitefly nymphs on sprayed French bean plants (greenhouse)
Assay type: in vivo
Details: 240 h, 10 days after application
From the text: The invention is illustrated in the following Example which describe experiments in which a synergistic effect was observed. The desired concentration of the active ingredients was achieved by diluting, with water, the commercially available 25% by volume emulsifiable concentrate of deltamethrin and 20% by weight water soluble powder of acetamiprid, each of which contained conventional surfactants.
Two plants of two week old French beans (Phaseolus vulgaris) were infested with adult whitefly (Trialeurodes vaporariorum) for oviposition in a closed chamber. After 48 hours, the adults were blown off the plants so that only the eggs stayed at the surface of the leaves. The plants were placed in a greenhouse for 7 days to complete the development of the eggs to the larval stage L 1/2. The plants were then sprayed with the individual compounds and mixtures of the two, by hand with a spray gun, until complete coverage of the plant surfaces with the spray liquid was obtained. The plants were then placed in the greenhouse for a further 10 days. Two replicates of each test was carried. The mortality of the nymphs of Trialeurodes vaporadorum was estimated 10 days after application and the average of the two replicates calculated.
To indicate the existence of synergism between the active components, the results were treated in the manner described by Colby S. R., “Calculating Synergistic and Antagonistic Responses of Herbicide Combinations,” Weeds, 1967, 15, 20-22. In this method, the “expected” percent control, E, of the combination is given by the equation: [formula]
The LC50 in ppm of the mixtures was calculated and compared with the expected LC50 from the expected mortalities according to Colby.

CC1(C)[C@H](C(=O)O[C@H](C#N)c2cccc(Oc3ccccc3)c2)[C@@H]1C=C(Br)Br [deltamethrin, (S)-α-cyano-3-phenoxybenzyl (1R,3R)-3-(2,2-dibromvinyl)-2,2-dimethylcyclopropanecarboxylate]
mortality at 0.01 ppm (deltamethrin 0,01 ppm alone): 0.75%
mortality at 0.1 ppm (deltamethrin 0,1 ppm alone): 25%
mortality at 0.02 ppm (deltamethrin 0,02 ppm alone): 2.5%
mortality at 0.2 ppm (deltamethrin 0,2 ppm alone): 36.2%
mortality at 0.06 ppm (deltamethrin 0,06 ppm alone): 15%
mortality at 0.6 ppm (deltamethrin 0,6 ppm alone): 47.5%
mortality at 0.33 ppm (deltamethrin 0,33 ppm alone): 47.5%
mortality at 1 ppm (deltamethrin 1 ppm alone): 73.8%
mortality at 0.006 ppm (deltamethrin 0,006 ppm alone): 0%
mortality at 0.033 ppm (deltamethrin 0,033 ppm alone): 8.75%

C/C(=N\C#N)N(C)Cc1ccc(Cl)nc1 [acetamiprid, E-N^1-[(6-chloro-3-pyridylmethyl)]-N^2-cyano-N^1-methylacetamidine]
mortality at 0.1 ppm (acetamiprid 0,1 ppm alone): 1.25%
mortality at 0.03 ppm (acetamiprid 0,03 ppm alone): 0%
mortality at 0.3 ppm (acetamiprid 0,3 ppm alone): 7.5%
mortality at 1 ppm (acetamiprid 1 ppm alone): 23.8%
mortality at 3 ppm (acetamiprid 3 ppm alone): 56.2%

Source: patent publication US6495577B2, “Pesticidal composition” (Aventis CropScience GmbH, priority 2000, dated 2002)
